Results: publication PMC11800497, “Antifungal activity and biocompatibility assessment with molecular docking and dynamic simulations of new pyrazole derivatives” (BMC Biotechnology, 2025)
Values after ≈ are worked out from the molar mass of the structure shown. “Also recorded” adds a separate entry of the source. Marks after values point to notes of the source that are not given here.

Assays:
[1] = test system: A. niger ATCC 11414; experiment: Minimal fungal inhibitory concentration (MFIC); type: cell-based, Aspergillus niger; parameters: key to Growth in MFIC test: -: No detected growth; +: Growth observed; details: 72 h, 28 °C
Procedure: (§1) In diagnostic laboratories, minimum inhibitory concentrations (MICs) are essential for confirming fungal resistance to an antifungal drug and monitoring the effectiveness of new antifungal medicines. MICs were computed in accordance with the recommendations established by the National Committee for Clinical Laboratory Standards (CLS). In dimethyl sulfoxide (DMSO), pyrazoles were serially diluted twice (1/2, 1/4, and 1/8) and heated at 70 °C for 10 min to get final concentrations of 1000–125 μg/ml, respectively. After that, these dilutions were put into wells that had already been created on plates with fungal infestations. Using a calibrated micropipette, fungus spore suspensions were prepared and added to malt agar welled plates then incubated for 72 h at 28 °C.

[2] = test system: R. oryzae ATCC 96382; experiment: Well-diffusion antifungal activity; type: cell-based, Rhizopus oryzae; details: Rhizopus arrhizus, ATCC96382; 1000 µg/ml, 72 h, 28 °C; read-out: IZD
Procedure: (§2) This study investigated strains of four distinct fungal pathogens: Aspergillus flavus ATCC 9643, A. niger ATCC 11414, Rhizopus oryzae ATCC 96382, and Penicillium chrysogenum ATCC 10106. Every strain was acquired from the Dep. of Micro. Fac. Agric., […] Uni., in Egypt. Initially kept and preserved in malt agar medium at 4 °C, the pathogens were then grown overnight at 28 °C in malt broth medium to evaluate the antifungal activity. Fungal pathogen standard inoculum was prepared by following the procedure described by. To assess the antifungal activity, the pathogens were first maintained and stored at 4 °C in malt agar medium. They were then cultured in malt broth medium for a whole night at 28 °C. According to [22], the well-diffusion technique was used to test the antifungal activity. This included using a 9.0 mm cork borer that had been sterilized to create wells in the malt agar layer. […] After adding 1000 μg/ml of control pyrazole compounds and the standard antifungal (Fluconazole 1000 μg/ml) to each well, the petri dishes were incubated at 28 °C for 72 h. The diameter of the standard reference antifungal was compared to the millimeters measurements of the inhibitory zones. The formula according to [22] was utilized to compute the activity index (AI).1 [drawing 1]

[3] = test system: A. flavus ATCC 9643; experiment: Minimal lethal fungal concentration (MLFC); type: cell-based, Aspergillus flavus; parameters: key to Growth in MLFC test: -: No detected growth; +: Growth observed
Procedure: (§3) The term “minimal lethal fungal concentration” (MLFC) refers to the lowest concentration of an antifungal drug that may […]. The fungus was initially subjected to different concentrations of the pyrazole compounds in order to ascertain this concentration. After that, the growth from the MIFC stage was moved to regular malt agar plates. After that, these plates are incubated for 72 h at 28 °C. After then, any growth—or lack thereof—is noted and studied.
(§4) Following the acquisition of the MFIC and MLFC records, the ratio was computed. The fungicidal activity of a pyrazole compound is defined as a ratio […].

[4] = test system: A. flavus ATCC 9643; experiment: Well-diffusion antifungal activity; type: cell-based, Aspergillus flavus; details: 1000 µg/ml; for zone of inhibition at 1000 µg/mL: Aspergillus flavus, ATCC9643, read-out: IZD
Procedure: as §2

[5] = test system: A. niger ATCC 11414 and A. flavus ATCC 9643; experiment: Activity spectrum in MFIC/MLFC tests (share of strains inhibited); type: cell-based, Aspergillus niger, Aspergillus flavus
Procedure: as §1, §3

[6] = test system: A. niger ATCC 11414; experiment: Minimal lethal fungal concentration (MLFC); type: cell-based, Aspergillus niger; parameters: key to Growth in MLFC test: -: No detected growth; +: Growth observed
Procedure: as §3, §4

[7] = test system: P. chrysogenum ATCC 10106; experiment: Well-diffusion antifungal activity; type: cell-based, Penicillium chrysogenum; details: 1000 µg/ml; for zone of inhibition at 1000 µg/mL: Penicillium chrysogenum, ATCC10106, 72 h, 28 °C, read-out: IZD
Procedure: as §2

[8] = test system: HFB4 normal human skin cell line; experiment: Biocompatibility, MTT assay; type: cell-based
Procedure: (§5) A complete monolayer sheet was created by incubating the 96-well tissue culture plate at 37 °C for 24 h following inoculation with 1 × 10^5 cells/ml (100 µl/well), following the procedure described by. Following the establishment of a confluent sheet of cells, the growth material was collected from the 96-well micro titer plates, and the cell monolayer underwent two washing media washes. […] They then evaluated 0.1 ml of each dilution in several wells. We looked at the cells for physical signs of toxicity, including granulation, rounding, shrinkage, and partial or complete loss of the monolayer. Following the phosphate buffer solution’s preparation, each well received 20 µl of a 5 mg/ml MTT (3-(4,5-dimethylthiazol-2-yl-)-2,5 diphenyltetrazolium bromide) solution from Bio Basic Canada Inc. After that, place it on a shaking table and shake it for five minutes at 150 rpm to completely integrate the MTT. to allow MTT to metabolize, followed by incubation for 4 h at 37 °C with 5% CO2. Media was taken out if necessary, and paper towels were used to wipe out any remaining material from the plate. One may re-dissolve formazan, a metabolic product of MTT, in 200 µL of DMSO. Put on a shaking table and shaken for five minutes at 150 rpm to fully mix the formazan and solvent. At 560 nm, optical density was measured, and at 620 nm, background was subtracted. There should be a direct relationship between optical density and cell number.3 [drawing 3]

[9] = Biocompatibility, MTT assay; type: cell-based, human; details: human, HFB4 normal human skin cells
Procedure: as §5

[10] = test system: A. flavus ATCC 9643; experiment: Minimal fungal inhibitory concentration (MFIC); type: cell-based, Aspergillus flavus; parameters: key to Growth in MFIC test: -: No detected growth; +: Growth observed; details: 72 h, 28 °C
Procedure: as §1

[11] = test system: A. niger ATCC 11414; experiment: Well-diffusion antifungal activity; type: cell-based, Aspergillus niger; details: 1000 µg/ml, 72 h, 28 °C; for zone of inhibition at 1000 µg/mL: Aspergillus niger, ATCC11414, read-out: IZD
Procedure: This study investigated strains of four distinct fungal pathogens: Aspergillus flavus ATCC 9643, A. niger ATCC 11414, Rhizopus oryzae ATCC 96382, and Penicillium chrysogenum ATCC 10106. Every strain was acquired from the Dep. of Micro. Fac. Agric., […] Uni., in Egypt. Initially kept and preserved in malt agar medium at 4 °C, the pathogens were then grown overnight at 28 °C in malt broth medium to evaluate the antifungal activity. Fungal pathogen standard inoculum was prepared by following the procedure described by [19, 20]. To assess the antifungal activity, the pathogens were first maintained and stored at 4 °C in malt agar medium. They were then cultured in malt broth medium for a whole night at 28 °C. According to [22], the well-diffusion technique was used to test the antifungal activity. This included using a 9.0 mm cork borer that had been sterilized to create wells in the malt agar layer. […] After adding 1000 μg/ml of control pyrazole compounds and the standard antifungal (Fluconazole 1000 μg/ml) to each well, the petri dishes were incubated at 28 °C for 72 h. The diameter of the standard reference antifungal was compared to the millimeters measurements of the inhibitory zones. The formula according to [22] was utilized to compute the activity index (AI).1 [drawing 1]

[12] = test system: A. fumigatus; parameters: method as in PMID 31926784; details: cited from earlier work
[13] = test system: A. flavus; parameters: method as in PMID 31926784; details: cited from earlier work
[14] = test system: A. niger; parameters: method as in PMID 31926784; details: cited from earlier work
[15] = relative to Fluconazole 1000 µg/ml

COc1ccc(NC(=O)/C(C#N)=C/c2cn(-c3ccccc3)nc2-c2ccccc2)cc1 [3b]
Growth in MFIC test ([1]; 125 µg/ml): + | Growth in MFIC test ([1]; 250 µg/ml): - | Growth in MFIC test ([1]; 500 µg/ml): - | Growth in MFIC test ([1]; 1000 µg/ml): - | Dose of MFIC [1]: 250 µg/mL | zone of inhibition at 1000 µg/mL [2]: 0 mm | Antifungal effect (ratio of MLFC and MFIC) [3]: 2 | Growth in MLFC test ([3]; 125 µg/ml, 72 h, 28 °C): + | Growth in MLFC test ([3]; 250 µg/ml, 72 h, 28 °C): + | Growth in MLFC test ([3]; 500 µg/ml, 72 h, 28 °C): - | Growth in MLFC test ([3]; 1000 µg/ml, 72 h, 28 °C): - | Dose of MLFC ([3]; 72 h, 28 °C): 500 µg/mL | IZD ([4]; 72 h, 28 °C): 30 ± 0.13^b mm | AI (activity index) [4, 15]: 1.0 | zone of inhibition at 1000 µg/mL ([4]; 72 h, 28 °C): 30 mm | Activity spectrum (MLFC) ([5]; 125 µg/ml): 0/2 (0%) | Activity spectrum (MLFC) ([5]; 250 µg/ml): 0/2 (0%) | Activity spectrum (MLFC) ([5]; 500 µg/ml): 2/2 (100%) | Activity spectrum (MLFC) ([5]; 1000 µg/ml): 2/2 (100%) | Antifungal effect (ratio of MLFC and MFIC) [6]: 2 | Growth in MLFC test ([6]; 125 µg/ml, 72 h, 28 °C): + | Growth in MLFC test ([6]; 250 µg/ml, 72 h, 28 °C): + | Growth in MLFC test ([6]; 500 µg/ml, 72 h, 28 °C): - | Growth in MLFC test ([6]; 1000 µg/ml, 72 h, 28 °C): - | Dose of MLFC ([6]; 72 h, 28 °C): 500 µg/mL | AI (activity index) [7, 15]: 0.87 | zone of inhibition at 1000 µg/mL [7]: 20 ± 0.11 mm | Toxicity % ([8]; 31.25 µg/ml): 0.177% | Toxicity % ([8]; 62.5 µg/ml): 0.118% | Toxicity % ([8]; 125 µg/ml): 0.118% | Toxicity % ([8]; 250 µg/ml): 0.236% | Toxicity % ([8]; 500 µg/ml): 0.354% | Toxicity % ([8]; 1000 µg/ml): 0.767% | Changes of HFB4 cells ([8]; concentrations 31.25–1000 µg/ml): no significant changes | IC50 (cytotoxicity) ([8]; tested up to 1000 µg/ml): no IC50 dose obtained; also recorded: no IC50 dose was determined | viability at 31.25 µg/ml ([9]; 31.25 µg/ml): 99.9% | viability at 62.5 µg/ml ([9]; 62.5 µg/ml): 99.8% | viability at 125 µg/ml ([9]; 125 µg/ml): 99.9% | viability at 250 µg/ml ([9]; 250 µg/ml): 99.8% | viability at 500 µg/ml ([9]; 500 µg/ml): 99.6% | viability at 1000 µg/ml ([9]; 1000 µg/ml): 99.2% | Growth in MFIC test ([10]; 125 µg/ml): + | Growth in MFIC test ([10]; 250 µg/ml): - | Growth in MFIC test ([10]; 500 µg/ml): - | Growth in MFIC test ([10]; 1000 µg/ml): - | Dose of MFIC [10]: 250 µg/mL | IZD [11]: 32 ± 0.14^a mm | zone of inhibition at 1000 µg/mL [11]: 32 mm

O=C1c2c(Br)c(Br)c(Br)c(Br)c2C(=O)N1N=Cc1cn(-c2ccccc2)nc1-c1ccccc1 [compound 6, 4,5,6,7-tetrabromo-2-(((1,3-diphenyl-1H-pyrazol-4-yl)methylene)amino)isoindoline-1,3-dione]
minimum inhibitory concentration [12]: 250 µg/mL (≈ 353 µM) | minimum inhibitory concentration [13]: 250 µg/mL (≈ 353 µM) | zone of inhibition at 1000 µg/mL [2]: 0 mm | zone of inhibition at 1000 µg/mL ([4]; 72 h, 28 °C): 0 mm | zone of inhibition at 1000 µg/mL [7]: 0 mm | minimum inhibitory concentration [14]: 250 µg/mL (≈ 353 µM) | zone of inhibition at 1000 µg/mL [11]: 0 mm
